≈ marks a conversion by molar mass, not a printed value.
Experiments:
Assay type in all cases: cell-based
Aspergillus flavus = assay: Antifungal activity, microtiter broth dilution MIC; conditions: Aspergillus flavus ID ATCC 12963; 35 °C, 24-48 hours
Description: (§1) Antifungal activity for the compounds of this invention was established by evaluating a representative compound of this invention (Compound I) against several strains of fungi. Briefly the following procedure was used to evaluate such activity. A 96 U-bottom microtiter plate was filled (50 µl/well) with RPMI 1640. The compounds to be evaluated were placed in appropriate wells, and serial diluted in successive wells to provide 11 dilutions. The concentrations ranged from 64 through 0.06 µg/ml. An adjusted inoculum of fungi (50 µl) was added to each well and the plates were incubated at 35 °C for 24-48 hours. […]

Aspergillus fumigatus = assay: Antifungal activity, microtiter broth dilution MIC; conditions: Aspergillus fumigatus ID ATCC 26933; 35 °C, 24-48 hours
Description: as §1

Aspergillus niger = assay: Antifungal activity, microtiter broth dilution MIC; conditions: Aspergillus niger ID S-430; 35 °C, 24-48 hours
Description: as §1

Candida albicans = assay: Antifungal activity, microtiter broth dilution MIC; conditions: 35 °C, 24-48 hours
Description: as §1

Candida glabrata = assay: Antifungal activity, microtiter broth dilution MIC; conditions: Candida glabrata ID ATCC 90030; 35 °C, 24-48 hours
Description: as §1

Candida lusitaniae = assay: Antifungal activity, microtiter broth dilution MIC; conditions: Candida lusitaniae ID 94-3; 35 °C, 24-48 hours
Description: as §1

Candida parapsilosis = assay: Antifungal activity, microtiter broth dilution MIC; conditions: 35 °C, 24-48 hours
Description: as §1

Candida pseudotropicalis = assay: Antifungal activity, microtiter broth dilution MIC; conditions: Candida pseudotropicalis ID ATCC 28838; 35 °C, 24-48 hours
Description: as §1

Candida rugosa = assay: Antifungal activity, microtiter broth dilution MIC; conditions: Candida rugosa ID 94-10; 35 °C, 24-48 hours
Description: as §1

Candida tropicalis = assay: Antifungal activity, microtiter broth dilution MIC; conditions: 35 °C, 24-48 hours
Description: as §1

Candida zeylanoided = assay: Antifungal activity, microtiter broth dilution MIC; conditions: Candida zeylanoided ID 94-15; 35 °C, 24-48 hours
Description: as §1

Cryptococcus neoformans = assay: Antifungal activity, microtiter broth dilution MIC; conditions: Cryptococcus neoformans ID ATCC 90112; 35 °C, 24-48 hours
Description: as §1

[1] = system: Filobasidiella neoformans; assay: Antifungal activity, microtiter broth dilution MIC; conditions: Filobasidiella neoformans ID ATCC 7472; 35 °C, 24-48 hours
Description: as §1

Saccharomyces cerevisiae = assay: Antifungal activity, microtiter broth dilution MIC; conditions: Saccharomyces cerevisiae ID ATCC 2601; 35 °C, 24-48 hours
Description: as §1

[2] = system: A2780DDP (ovarian - resistant to cis-platin); assay: Antineoplastic activity, tumor cell growth inhibition (sulforhodamine B); conditions: A2780DDP cells, 48 hours, inhibition of growth
From the text: (§2) Antineoplastic activity for the compounds of this invention was established by evaluating the antineoplastic activity of a representative compound of this invention (Compound I) against six tumor cell lines in vitro. Briefly, tumor cells from six cell lines were placed in wells of a 96 well microtiter plate. The following tumor cell lines were used: A2780S (ovarian), A2780DDP (ovarian - resistant to cis-platin), A431 (vulva epidermoid origin), SW620 (colon), SKBR3 (breast), and MDA-MB-435 (breast). The tumors cells were grown in the presence of serial dilutions of the compound to be evaluated for 48 hours, and cell growth determined using a colorimetric procedure (sulforhrodamine B). The inhibition of growth was calculated compared to the number of cells at the time of test compound addition. Results are expressed as an IC50 (µg/ml). […] In particular, the compounds of this invention are useful against solid tumors, including sarcomas and carcinomas; and more particularly against astrocytomas, prostate cancer, breast cancer, colon cancer, small cell lung cancer, and ovarian cancer; and adult T-cell leukemia/lymphoma.

A2780S (ovarian) = assay: as above; conditions: A2780S cells, 48 hours, inhibition of growth
From the text: as §2

[3] = system: A431 (vulva epidermoid origin); assay: as above; conditions: A431 cells, 48 hours, inhibition of growth
From the text: as §2

MDA-MB-435 (breast) = assay: as above; conditions: MDA-MB-435 cells, 48 hours, inhibition of growth
From the text: as §2

SKBR3 (breast) = assay: as above; conditions: SKBR3 cells, 48 hours, inhibition of growth
From the text: as §2

SW620 (colon) = assay: as above; conditions: SW620 cells, 48 hours, inhibition of growth
From the text: as §2

Compound `CO[C@H]1C[C@@H]2CC[C@@H](C)[C@@](O)(O2)[C@]2(O)C(=O)N3[C@@H](CCC[C@@H]32)C(=O)O[C@H]([C@H](C)C[C@@H]2CC[C@@H](O)[C@H](OC)C2)CC(=O)[C@H](C)/C=C(\C)[C@@H](O)[C@@H](OC)C(=O)[C@H](C)C[C@H](C)/C=C/C=C/C=C/1C` [Compound I, (1S, 2R, 3R, 6S, 8S, 9E, 11E, 13E, 15S, 17R, 19R, 20R, 21E, 23R, 26S, 29S, 33R)-1,2, 30-Trihydroxy-26-[(1R)-2-[(1S, 3R, 4R)-4-hydroxy-3-methoxycyclohexyl]-1-methylethyl]-8, 19-dimethoxy-3,9,15, 17, 21, 23-hexamethyl-27, 36-dioxa-35-azatetracyclo[27.4.2.1.[2, 6].0 [33, 35]] hexatriaconta-9, 11, 13, 21-tetraene-18, 24, 28, 34-tetrone] has an MIC (Aspergillus flavus) of no less than 64 µg/mL, an MIC (Aspergillus fumigatus) of no less than 64 µg/mL and an MIC (Aspergillus niger) of no less than 64 µg/mL. The MIC (Candida albicans; Candida albicans ID 94-1) was 16 µg/mL (≈ 17.5 µM), the MIC (Candida albicans; Candida albicans ID 1063) was 16 µg/mL (≈ 17.5 µM) and the MIC (Candida albicans; Candida albicans ID 1117) was 32 µg/mL (≈ 35 µM). It also gave an MIC (Candida albicans; Candida albicans ID ATCC 90028) of 16 µg/mL (≈ 17.5 µM), an MIC (Candida albicans; Candida albicans ID C-83) of no less than 64 µg/mL and an MIC (Candida glabrata) of 8 µg/mL (≈ 8.75 µM). For the same compound, the MIC (Candida lusitaniae) was 4 µg/mL (≈ 4.38 µM), the MIC (Candida parapsilosis; Candida parapsilosis ID 94-8) was 8 µg/mL (≈ 8.75 µM) and the MIC (Candida parapsilosis; Candida parapsilosis ID 94-9) was 8 µg/mL (≈ 8.75 µM). For the same compound, the MIC (Candida parapsilosis; Candida parapsilosis ID ATCC 90018) was 8 µg/mL (≈ 8.75 µM), the MIC (Candida pseudotropicalis) was 4 µg/mL (≈ 4.38 µM) and the MIC (Candida rugosa) was 16 µg/mL (≈ 17.5 µM). It also gave an MIC (Candida tropicalis; Candida tropicalis ID 94-13) of 16 µg/mL (≈ 17.5 µM), an MIC (Candida tropicalis; Candida tropicalis ID 94-14) of 8 µg/mL (≈ 8.75 µM) and an MIC (Candida zeylanoided) of 8 µg/mL (≈ 8.75 µM). The MIC (Cryptococcus neoformans) was 8 µg/mL (≈ 8.75 µM), the MIC [1] was no less than 64 µg/mL and the MIC (Saccharomyces cerevisiae) was 8 µg/mL (≈ 8.75 µM). It also gave an IC50 [2] of 6.51 µg/mL (≈ 7.12 µM), an IC50 (A2780S (ovarian)) of 8.756 µg/mL (≈ 9.58 µM) and an IC50 [3] of 20.46 µg/mL (≈ 22.4 µM). It also gave an IC50 (MDA-MB-435 (breast)) of 27.28 µg/mL (≈ 29.8 µM), an IC50 (SKBR3 (breast)) of 7.029 µg/mL (≈ 7.69 µM) and an IC50 (SW620 (colon)) of 24.84 µg/mL (≈ 27.2 µM).
